Source: ChEMBL document CHEMBL2440051, “Structure-activity relationships of lanostane-type triterpenoids from Ganoderma lingzhi as α-glucosidase inhibitors” (Bioorg Med Chem Lett, 2013)
pIC50: −log10 of the molar value.

Molecular target: not listed separately
Test: Inhibition of alpha-glucosidase (unknown origin) using sucrose as substrate assessed as formation of glucose after 30 mins by glucose oxidase method
Design: species or system Homo sapiens

SMILES | pIC50
COC(=O)C(C)CC(=O)/C=C(\C)[C@H]1C[C@H](O)[C@@]2(C)C3=C(C(=O)C[C@]12C)[C@@]1(C)CCC(=O)C(C)(C)[C@@H]1C[C@@H]3O (stereo partly drawn) [METHYL GANODERENATE A] | < 3.22
CC(CC(=O)C[C@@H](C)[C@H]1CC(=O)[C@@]2(C)C3=C(C(=O)[C@@H](O)[C@]12C)[C@@]1(C)CC[C@H](O)C(C)(C)[C@@H]1C[C@@H]3O)C(=O)O (stereo partly drawn) [GANODERIC ACID G] | < 3.22
C[C@H]1O[C@H](O[C@H]2[C@H](O)[C@@H](O)[C@@H](O[C@H]3[C@H](O)[C@@H](O)C(O)O[C@@H]3CO)O[C@@H]2CO)[C@H](O)[C@@H](O)[C@@H]1N[C@H]1C=C(CO)[C@@H](O)[C@H](O)[C@H]1O (stereo partly drawn) [ACARBOSE] | 3.28
CC(=O)O[C@@H]1C(=O)C2=C(C(=O)C[C@H]3C(C)(C)[C@@H](O)CC[C@]23C)[C@]2(C)C(=O)C[C@H]([C@H](C)CC(=O)CC(C)C(=O)O)[C@@]12C (stereo partly drawn) [GANODERIC ACID H] | < 3.22
CC(=O)O[C@@H]1C(=O)C2=C([C@@H](O)C[C@H]3C(C)(C)[C@@H](O)CC[C@]23C)[C@]2(C)C(=O)C[C@H]([C@H](C)CC(=O)CC(C)C(=O)O)[C@@]12C (stereo partly drawn) [GANODERIC ACID K] | < 3.22
CC(CC(=O)C[C@@H](C)[C@H]1CC(=O)[C@@]2(C)C3=C([C@@H](O)C[C@]12C)[C@@]1(C)CCC(=O)C(C)(C)[C@@H]1C[C@@H]3O)C(=O)O (stereo partly drawn) [GANODERIC ACID DF] | 3.66
C[C@H](CC(=O)C[C@@H](C)[C@H]1C[C@H](O)[C@@]2(C)C3=C(C(=O)C[C@]12C)[C@@]1(C)CC[C@H](O)C(C)(C)[C@@H]1C[C@@H]3O)C(=O)O [GANODERIC ACID C2] | < 3.22
C[C@H](CC[C@H](O)[C@](C)(O)CO)[C@H]1CC[C@@]2(C)C3=CC[C@H]4C(C)(C)C(=O)CC[C@]4(C)C3=CC[C@]12C [GANODERMANONTRIOL] | 3.27
COC(=O)C(C)CC(=O)C[C@@H](C)[C@H]1C[C@H](O)[C@@]2(C)C3=C(C(=O)C[C@]12C)[C@@]1(C)CCC(=O)C(C)(C)[C@@H]1C[C@@H]3O (stereo partly drawn) [METHYL GANODERATE A] | < 3.22
CC(CC(=O)C[C@@H](C)[C@H]1CC(=O)[C@@]2(C)C3=C(C(=O)C[C@]12C)[C@@]1(C)CC[C@H](O)C(C)(C)[C@@H]1C[C@@H]3O)C(=O)O (stereo partly drawn) [GANODERIC ACID B] | 3.33
C[C@H](CCC=C(CO)CO)[C@H]1CC[C@@]2(C)C3=CC[C@H]4C(C)(C)C(=O)CC[C@]4(C)C3=CC[C@]12C [GANODERIOL F] | 3.68
COC(=O)C(C)CC(=O)C[C@@H](C)[C@H]1CC(=O)[C@@]2(C)C3=C([C@@H](O)C[C@]12C)[C@@]1(C)CCC(=O)C(C)(C)[C@@H]1C[C@@H]3O (stereo partly drawn) | < 3.22
C/C(=C\C(=O)CC(C)C(=O)O)[C@H]1C[C@H](O)[C@@]2(C)C3=C(C(=O)C[C@]12C)[C@@]1(C)CCC(=O)C(C)(C)[C@@H]1C[C@@H]3O (stereo partly drawn) [GANODERENIC ACID A] | 3.35
CC(CC(=O)C[C@@H](C)[C@H]1C[C@H](O)[C@@]2(C)C3=C(C(=O)C[C@]12C)[C@@]1(C)CCC(=O)C(C)(C)[C@@H]1CC3=O)C(=O)O (stereo partly drawn) [GANODERIC ACID J] | < 3.22
C[C@H](CC(=O)C[C@@H](C)[C@H]1C[C@H](O)[C@@]2(C)C3=C(C(=O)C[C@]12C)[C@@]1(C)CCC(=O)C(C)(C)[C@@H]1C[C@@H]3O)C(=O)O [GANODERIC ACID A] | 3.28
CC(CC(=O)C[C@@H](C)[C@H]1CC(=O)[C@@]2(C)C3=C(C(=O)C[C@]12C)[C@@]1(C)CCC(=O)C(C)(C)[C@@H]1C[C@@H]3O)C(=O)O (stereo partly drawn) [GANODERIC ACID D] | < 3.22
C[C@H](CC(=O)C[C@@H](C)[C@H]1CC(=O)[C@@]2(C)C3=C(C(=O)C[C@]12C)[C@@]1(C)CCC(=O)C(C)(C)[C@@H]1C[C@@H]3O)C(=O)O [GANODERIC ACID C1] | < 3.22
C/C(=C\CC[C@@H](C)[C@H]1CC[C@@]2(C)C3=CC[C@H]4C(C)(C)[C@@H](O)CC[C@]4(C)C3=CC[C@]12C)CO [GANODEROL B] | 3.96
CC(CC(=O)C[C@@H](C)[C@H]1CC(=O)[C@@]2(C)C3=C(C(=O)[C@@H](O)[C@]12C)[C@@]1(C)CC[C@H](O)C(C)(C)[C@@H]1CC3=O)C(=O)O (stereo partly drawn) [GANODERIC ACID C6] | < 3.22
CC(CC(=O)C[C@@H](C)[C@H]1C[C@H](O)[C@@]2(C)C3=C(C(=O)C[C@]12C)[C@@]1(C)CC[C@H](O)C(C)(C)[C@@H]1CC3)C(=O)O (stereo partly drawn) [GANOLUCIDIC ACID B] | < 3.22

Species on record: Homo sapiens
Test: Ratio of acarbose IC50 to compound IC50 for alpha-glucosidase (unknown origin)

SMILES | Ratio IC50
CC(CC(=O)C[C@@H](C)[C@H]1CC(=O)[C@@]2(C)C3=C([C@@H](O)C[C@]12C)[C@@]1(C)CCC(=O)C(C)(C)[C@@H]1C[C@@H]3O)C(=O)O (stereo partly drawn) [GANODERIC ACID DF] | 2.5
C[C@H](CCC=C(CO)CO)[C@H]1CC[C@@]2(C)C3=CC[C@H]4C(C)(C)C(=O)CC[C@]4(C)C3=CC[C@]12C [GANODERIOL F] | 3
C/C(=C\CC[C@@H](C)[C@H]1CC[C@@]2(C)C3=CC[C@H]4C(C)(C)[C@@H](O)CC[C@]4(C)C3=CC[C@]12C)CO [GANODEROL B] | 5
